Results published in paper PMC6418145 (Scientific Reports, 2019).

Assays:
PDE4D2 = PDE4D2 (Homo sapiens, UniProt Q08499); experiment: Off-target enzyme assay; format: biochemical; details: 10 μM compound, not shown
AChE = AChE (Homo sapiens, UniProt P22303); details: 10 μM compound, not shown
[1] = target: T1, 5-HT2A serotonin receptor (Homo sapiens, UniProt P28223); experiment: Off-target radioligand binding; details: 10 μM compound
T1 construct: expressed in transfected cells; host or cells: HEK-293 or CHO
Protocol: Receptors and transporters of interest were overexpressed in either human recombinant human embryonic kidney (HEK)-293 or Chinese hamster ovary (CHO) cells. […] Results are expressed as percent inhibition of control-specific binding of the radioactively labelled ligand specific for the respective target. For enzyme inhibition, the effect was calculated as a percent inhibition of control enzyme activity. […] All presented values are the mean of two experiments.

H1 histamine receptor = target: T2, H1 histamine receptor (Homo sapiens, UniProt P35367); experiment: Off-target radioligand binding; details: 10 μM compound
T2 construct: expressed in transfected cells; host or cells: HEK-293 or CHO

[2] = test system: 5-HT1B serotonin receptor; experiment: Off-target radioligand binding; design: species or system human; details: 10 μM compound
[3] = target: T3, 5-HT2B serotonin receptor (Homo sapiens, UniProt P41595); experiment: Off-target radioligand binding; details: 10 μM compound
T3 construct: expressed in transfected cells; host or cells: HEK-293 or CHO

Lck kinase = Lck kinase (Homo sapiens, UniProt P06239); experiment: Off-target enzyme assay; format: biochemical; details: 10 μM compound, not shown
COX2 = COX2 (Homo sapiens, UniProt P35354); experiment: Off-target enzyme assay; format: biochemical; details: 10 μM compound, not shown
hM3Dq = test system: hM3Dq; design: method as in PMID 25587888; details: FLIPR assay; cited from earlier work
M3 muscarinic receptor = target: T4, M3 muscarinic receptor (Homo sapiens, UniProt P20309); experiment: Off-target radioligand binding; details: 10 μM compound
T4 construct: expressed in transfected cells; host or cells: HEK-293 or CHO

[4] = Pharmacokinetics in plasma, CSF and cortical brain tissue after i.p. injection
Protocol: (§1) Blood (approximately 100 µl) was collected from the vena facialis in anaesthetised animals, followed by CSF sampling (approximately 10 µl) from the cisterna magna under pentobarbital anaesthesia (1:25 in saline, 10 ml/kg, i.p., Narcoren, Boehringer Ingelheim, Germany). Subsequently, the brain was removed and its anterior third (including the medial prefrontal and anterior cingulate cortices) dissected and transferred into Precellys tubes cooled in liquid nitrogen. For plasma extraction, blood was transferred to EDTA coated tubes and centrifuged for 10 min at 10,000 rpm at 4 °C. Maximal plasma concentration (Cmax), time taken to reach maximal plasma concentration (Tmax) and mean residence time were assessed using liquid chromatography–mass spectrometry analysis executed on the HP1200 (Agilent, CA, USA) coupled to the API 6500 (AB Sciex, Germany) using BI00001052 (Boehringer Ingelheim) as internal standard. In short, 5 µl of plasma or CSF sample were mixed with 10 nl internal standard. 70 µl acetonitrile (ACN)/methanol (1:1) was added, kept at −20 °C for 15 min and centrifuged for 4 min at 4000 rpm at 4 °C. 30 µl of the supernatant was mixed with 170 µl 0.1% formic acid. Brain homogenization was executed by Precellys Evolution (Bertin) after adding ACN/methanol (1:1)/aq.dest. (3:1) to each brain sample with a volume corresponding to 4 parts of the brain weight, followed by centrifugation for 1 min at 4000 rpm at 4 °C. 5 µl of the supernatant was mixed with 10 nl of internal standard.

[5] = target: T5, 5-HT1A serotonin receptor (Homo sapiens, UniProt P08908); experiment: Off-target radioligand binding; details: 10 μM compound
T5 construct: expressed in transfected cells; host or cells: HEK-293 or CHO

μ opioid receptor = target: T6, μ opioid receptor (Homo sapiens, UniProt P35372); experiment: Off-target radioligand binding; details: 10 μM compound
T6 construct: expressed in transfected cells; host or cells: HEK-293 or CHO

5-HT3 serotonin receptor = 5-HT3 serotonin receptor (Homo sapiens, UniProt P46098); experiment: Off-target radioligand binding; details: 10 μM compound
δ opioid receptor = target: T7, δ opioid receptor (Homo sapiens, UniProt P41143); experiment: Off-target radioligand binding; details: 10 μM compound
T7 construct: expressed in transfected cells; host or cells: HEK-293 or CHO

hM4Di = target: T8, hM4Di (Homo sapiens, UniProt P08173, A203G/Y113C); experiment: FLIPR Ca2+ oscillation assay in primary rat neuronal cultures transduced with hM4Di; format: cell-based; details: reduction of Ca2+ oscillation frequency, hM4Di-transduced rat primary neurons, Hill fit; read-out: half maximal effective concentration (EC50) at hM4Di
T8 construct: expressed in transfected cells; host or cells: primary cortical neurons of embryonic (E18) Sprague-Dawley rats, AAV-transduced
T8 sequence (P08173 1-479 Y113C/A203G): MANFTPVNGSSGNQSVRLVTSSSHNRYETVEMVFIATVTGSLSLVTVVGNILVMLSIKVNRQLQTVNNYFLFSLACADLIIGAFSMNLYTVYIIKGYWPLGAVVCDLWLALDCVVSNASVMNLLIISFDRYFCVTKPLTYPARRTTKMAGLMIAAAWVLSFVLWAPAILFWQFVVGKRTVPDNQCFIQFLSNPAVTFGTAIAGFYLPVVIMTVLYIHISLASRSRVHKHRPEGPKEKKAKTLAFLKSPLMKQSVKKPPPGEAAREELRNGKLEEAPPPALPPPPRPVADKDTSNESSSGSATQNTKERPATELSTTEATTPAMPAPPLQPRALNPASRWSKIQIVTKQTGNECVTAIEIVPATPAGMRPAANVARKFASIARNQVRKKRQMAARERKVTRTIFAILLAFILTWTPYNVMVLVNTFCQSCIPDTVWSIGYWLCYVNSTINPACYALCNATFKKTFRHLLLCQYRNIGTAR
Protocol: Briefly, cortices were dissected from embryonic brains, meninges were removed, and cortices transferred into ice-cold dissociation buffer (2 mM kynurenic acid, 10 mM HEPES, 20 mM MgCl2 (Fluka, Germany) and 33.4 mM Glucose in Hank’s Balanced Salt Solution (HBSS), pH 7.4 (Gibco, Thermo Fischer Scientific, Massachusetts, USA). Cortices were then dissociated in 20 units/ml papain solution (5.5 mM L- Cysteine hydrochloride, 1.1 mM ethylenediamine tetra-acetic acid [EDTA], 0.067 mM 2-Mercaptoethanol in Minimum Essential Medium [MEM]) for 15 min at 37 °C. Cortices were washed twice by adding 20 ml plating medium (1:50 foetal calve serum, 1:100 penicillin/streptomycin and 1:100 GlutaMax in MEM) followed by cell filtration using a 70 µm cell strainer (Corning, model #352350, Merck, Germany) to obtain a single-cell suspension. Dissociated cells were re-suspended in serum-free Neurobasal medium with Glutamax and B27 supplement (Gibco) and plated on PDL-coated 96 MTPs (Corning #356640). Virus (ssAAV-1/2-hSyn1-hM4D[Gi]_mCherry-WPRE-hGHp[A]) transduction was performed immediately after plating. Cells were maintained at 37 °C (5% CO2 and 10% O2) in a humidified incubator. A half feed medium change was done on DIV8. Final assay conditions used for evaluating activity of compounds were 0.95 × 10^5 cells/cm^2, transduced with 10.000 multiplicity of infection and measured on DIV9.
Medium was removed and cells were incubated in assay buffer (HBSS, Gibco, 10 mM HEPES, pH 7.4) containing 4 µM Fluo-4AM (Thermo Fischer Scientific) and 0.1% Pluronic F-127 (Thermo Fischer Scientific #P3000MP) for 1 h at room temperature in the dark. Loading buffer was then replaced with assay buffer. After 10 min, assay plates were measured in the FLIPR tetra (Molecular Devices, California, USA) using green fluorescence filter settings (excitation 470–495 nm, emission 515–575 nm). Fluorescence signals were recorded at 1 s intervals (0.4 s exposure time). Compound addition was automated in a single addition protocol. Tested compounds (concentrations:0.3 nM–1 µM; retigabine at 30 µM) were added after recording a baseline response for 5 min followed by another 5 min for recording compound effects on Ca^2+ oscillations. Each compound dose was repeated on three individual plates in duplicates.
Time-series raw fluorescence traces recorded from the FLIPR assay were analysed by detecting Ca^2+ peaks based on a fixed amplitude threshold[19]. The change in oscillation frequency was determined by counting the number of peaks in a defined time interval (5 min) before and after addition of the tested compound and calculating the Ca^2+ oscillations frequency from their number. […] For visualisation, all data were transferred to GraphPad Prism 7 (Graphpad Software, Inc., CA, USA).

C57BL/6 J mice = experiment: 5-choice serial-reaction-time task (5-CSRTT), unspecific behavioural effects; format: in vivo
Protocol: Training was performed in 16 standard mouse Bussey-Saksida touchscreen chambers (model #80614, Campden Instruments Ltd., UK), previously described in detail. In short, each trapezoidal operant chamber was placed in a sound- and light- attenuating box individually equipped with a house light, a reward magazine with light, a liquid reward dispenser, a sound generator, a perforated stainless steel floor, and a touchscreen placed at the wide end of the chamber and covered permanently by a black acrylic glass 5-hole mask. The reward magazine, located opposite the touchscreen, was connected to a liquid dispenser delivering strawberry milk (Yazoo®). Infrared break-beam sensors located inside and on the front of the food magazine as well as on the touch-screen walls allowed the detection of reward delivery and the animal’s locomotor activity, respectively. Four individual chambers were connected to one computer for controlling the task flow using the graphical task design software ABET II Touch (model #89505, Campden Instruments Ltd., UK) and the WhiskerServer software (Cambridge University Technical Services Ltd., UK)[27].
Mice were habituated to the chambers for three consecutive 20-min sessions during which the house light and magazine light were permanently on. At the start of each session, 30 µl strawberry milk was delivered. Every 15 s after head entry into the magazine, an additional 30 µl strawberry milk was delivered. Head entry turned the magazine light off.
The 5-CSRTT training protocol, originally designed for rats[28], was similar as that previously described for mice[29]–[31]. The training comprised six stages with 30-min sessions initiated by the illumination of the house and magazine lights and delivery of 20 µl strawberry milk. Collection of the reward switched the magazine light off and started the first trial.
In the first stage, the middle window was permanently illuminated, which was turned off when touched, followed by reward delivery (20 µl) with illumination of the magazine light. Head entry switched off the magazine light. Mice performing 30 trials in a session continued to the next stage. Training sessions in stages 2–6 comprised a maximum of 120 trials. Collection of the reward initiated the inter-trial interval (ITI) followed by the illumination of one pseudo-randomly selected aperture for a fixed stimulus duration (SD). Any touch to the screen during the ITI was classified as a premature response which was not counted as a trial and terminated the current trial. Following stimulus detection, a nose poke to the corresponding aperture within a fixed time interval (limited hold; LH) was required for reward delivery. Premature responses made during the ITI, incorrect responses, and the omission of a response within the LH led to a timeout (TO, house light switched off for 4 s) instead of delivery of reward. Correct, incorrect and omitted responses defined the total number of trials. […] The criteria to pass the last stage and reach baseline performance were to complete >30 correct trials, with ≥80% accuracy and ≤30% omissions. Percentage accuracy was defined as the number of correct trials divided by the sum of correct and incorrect trials. Percentage omissions were calculated in terms of the number of completed trials. Premature responding was calculated as a percentage of completed trials. Perseveration was calculated as the number of additional responses made in the same aperture following a correct response. Additionally, the correct-response latency (time from stimulus presentation to correct response) and reward latency (time from correct response to reward collection) were measured across all trials.
Either one or up to three days before, as well as one day after the task challenge, mice were trained at baseline conditions to check for any unexpected changes in task performance (e.g. by long lasting drug- or challenge-induced effects). […]

PDE3A = PDE3A (Homo sapiens, UniProt Q14432); experiment: Off-target enzyme assay; format: biochemical; details: 10 μM compound, not shown
D2 dopamine receptor = target: T9, D2 dopamine receptor (Homo sapiens, UniProt P14416); experiment: Off-target radioligand binding; details: 10 μM compound
T9 construct: expressed in transfected cells; host or cells: HEK-293 or CHO

κ opioid receptor = experiment: Off-target radioligand binding; design: species or system human; details: 10 μM compound
α1A adrenoreceptor = target: T10, α1A adrenoreceptor (Homo sapiens, UniProt P35348); experiment: Off-target radioligand binding; details: 10 μM compound
T10 construct: expressed in transfected cells; host or cells: HEK-293 or CHO

D1 dopamine receptor = target: T11, D1 dopamine receptor (Homo sapiens, UniProt P21728); experiment: Off-target radioligand binding; details: 10 μM compound
T11 construct: expressed in transfected cells; host or cells: HEK-293 or CHO

M1 muscarinic receptor = target: T12, M1 muscarinic receptor (Homo sapiens, UniProt P11229); experiment: Off-target radioligand binding; details: 10 μM compound
T12 construct: expressed in transfected cells; host or cells: HEK-293 or CHO

M2 muscarinic receptor = target: T13, M2 muscarinic receptor (Homo sapiens, UniProt P08172); experiment: Off-target radioligand binding; details: 10 μM compound
T13 construct: expressed in transfected cells; host or cells: HEK-293 or CHO

COX1 = COX1 (Homo sapiens, UniProt P23219); experiment: Off-target enzyme assay; format: biochemical; details: 10 μM compound, not shown
in vivo = details: mouse, ip
Protocol: as §1

[6] = mice, 15 min after 3.0 mg/kg Cmpd-21 i.p.
[7] = mice, 60 min after 3.0 mg/kg Cmpd-21 i.p.
[8] = brain (cortical tissue), 3.5 mg/kg

T5 sequence (P08908 whole entry): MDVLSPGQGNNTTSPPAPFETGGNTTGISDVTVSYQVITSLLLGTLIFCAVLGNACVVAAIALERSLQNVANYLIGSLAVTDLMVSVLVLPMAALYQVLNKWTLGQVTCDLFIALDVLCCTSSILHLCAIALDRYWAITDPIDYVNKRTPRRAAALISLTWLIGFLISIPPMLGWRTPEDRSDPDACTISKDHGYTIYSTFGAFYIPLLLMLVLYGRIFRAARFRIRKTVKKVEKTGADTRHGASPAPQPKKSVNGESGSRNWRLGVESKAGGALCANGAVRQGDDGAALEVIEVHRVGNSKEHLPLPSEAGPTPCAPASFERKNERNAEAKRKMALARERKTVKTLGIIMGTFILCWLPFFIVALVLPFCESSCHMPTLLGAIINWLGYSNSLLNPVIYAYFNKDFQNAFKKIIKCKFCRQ
Chain of 5-HT3 serotonin receptor (P46098 24-478): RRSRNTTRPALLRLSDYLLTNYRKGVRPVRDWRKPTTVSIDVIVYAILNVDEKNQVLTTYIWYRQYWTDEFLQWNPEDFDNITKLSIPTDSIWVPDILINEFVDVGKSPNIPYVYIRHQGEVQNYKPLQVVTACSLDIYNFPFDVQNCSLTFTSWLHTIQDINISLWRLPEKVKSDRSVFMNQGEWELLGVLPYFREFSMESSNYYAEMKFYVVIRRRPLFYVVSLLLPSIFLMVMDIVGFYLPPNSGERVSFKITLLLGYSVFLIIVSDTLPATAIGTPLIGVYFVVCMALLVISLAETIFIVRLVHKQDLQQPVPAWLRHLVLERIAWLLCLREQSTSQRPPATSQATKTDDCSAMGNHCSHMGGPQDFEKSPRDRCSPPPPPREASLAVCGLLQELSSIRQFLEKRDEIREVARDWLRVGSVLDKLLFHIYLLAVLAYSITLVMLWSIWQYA
T1 sequence (P28223 whole entry): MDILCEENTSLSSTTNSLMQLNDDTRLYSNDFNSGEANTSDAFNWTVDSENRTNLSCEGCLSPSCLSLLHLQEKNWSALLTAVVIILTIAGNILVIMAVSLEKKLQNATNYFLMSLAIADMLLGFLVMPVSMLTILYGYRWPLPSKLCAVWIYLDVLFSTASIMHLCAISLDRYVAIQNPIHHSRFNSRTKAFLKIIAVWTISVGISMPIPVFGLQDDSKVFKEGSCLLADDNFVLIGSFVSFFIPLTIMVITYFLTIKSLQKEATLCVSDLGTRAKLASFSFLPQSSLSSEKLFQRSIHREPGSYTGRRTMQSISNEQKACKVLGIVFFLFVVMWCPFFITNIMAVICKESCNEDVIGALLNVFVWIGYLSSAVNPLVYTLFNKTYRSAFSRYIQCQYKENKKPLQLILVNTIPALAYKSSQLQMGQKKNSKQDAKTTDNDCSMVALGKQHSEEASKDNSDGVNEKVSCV
T13 sequence (P08172 whole entry): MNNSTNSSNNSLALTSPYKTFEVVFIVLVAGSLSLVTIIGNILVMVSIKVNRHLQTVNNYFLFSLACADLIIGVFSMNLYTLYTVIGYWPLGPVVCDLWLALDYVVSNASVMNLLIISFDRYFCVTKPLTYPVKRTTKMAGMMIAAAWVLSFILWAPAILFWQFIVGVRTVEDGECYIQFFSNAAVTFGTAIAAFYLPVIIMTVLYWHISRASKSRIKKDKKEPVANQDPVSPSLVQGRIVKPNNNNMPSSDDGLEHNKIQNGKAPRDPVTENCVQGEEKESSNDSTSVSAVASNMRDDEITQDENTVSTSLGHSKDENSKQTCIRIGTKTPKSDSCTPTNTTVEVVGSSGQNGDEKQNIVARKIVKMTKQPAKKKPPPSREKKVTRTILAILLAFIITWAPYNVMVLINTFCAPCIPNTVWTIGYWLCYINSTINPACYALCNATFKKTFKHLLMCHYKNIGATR
Chain of COX2 (P35354 18-604): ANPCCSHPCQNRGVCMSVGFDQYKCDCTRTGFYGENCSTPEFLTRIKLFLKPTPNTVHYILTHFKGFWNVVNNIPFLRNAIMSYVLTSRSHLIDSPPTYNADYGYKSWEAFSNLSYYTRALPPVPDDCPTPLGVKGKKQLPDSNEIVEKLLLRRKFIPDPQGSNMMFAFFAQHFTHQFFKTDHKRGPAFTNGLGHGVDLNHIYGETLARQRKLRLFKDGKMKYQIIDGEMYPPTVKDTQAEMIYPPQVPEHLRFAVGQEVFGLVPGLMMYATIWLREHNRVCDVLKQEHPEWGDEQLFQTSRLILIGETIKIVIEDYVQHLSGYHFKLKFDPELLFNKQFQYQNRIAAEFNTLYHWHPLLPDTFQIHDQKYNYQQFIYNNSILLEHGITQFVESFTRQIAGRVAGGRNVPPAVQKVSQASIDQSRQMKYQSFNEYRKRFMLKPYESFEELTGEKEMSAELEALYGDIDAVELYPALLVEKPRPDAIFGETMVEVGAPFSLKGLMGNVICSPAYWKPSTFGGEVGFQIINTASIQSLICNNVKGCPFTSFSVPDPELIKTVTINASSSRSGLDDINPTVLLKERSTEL
T11 sequence (P21728 whole entry): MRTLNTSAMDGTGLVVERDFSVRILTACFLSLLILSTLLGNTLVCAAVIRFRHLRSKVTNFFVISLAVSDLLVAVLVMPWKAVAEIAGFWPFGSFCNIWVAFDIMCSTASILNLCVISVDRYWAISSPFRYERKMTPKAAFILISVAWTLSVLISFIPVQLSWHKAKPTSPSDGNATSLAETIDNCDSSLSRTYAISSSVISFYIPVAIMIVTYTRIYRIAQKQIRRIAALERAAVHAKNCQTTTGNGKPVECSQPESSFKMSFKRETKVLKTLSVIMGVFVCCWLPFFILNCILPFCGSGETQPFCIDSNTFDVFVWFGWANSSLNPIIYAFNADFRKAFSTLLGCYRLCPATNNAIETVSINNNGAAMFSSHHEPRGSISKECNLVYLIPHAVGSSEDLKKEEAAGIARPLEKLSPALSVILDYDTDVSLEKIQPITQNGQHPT
Chain of Lck kinase (P06239 whole entry): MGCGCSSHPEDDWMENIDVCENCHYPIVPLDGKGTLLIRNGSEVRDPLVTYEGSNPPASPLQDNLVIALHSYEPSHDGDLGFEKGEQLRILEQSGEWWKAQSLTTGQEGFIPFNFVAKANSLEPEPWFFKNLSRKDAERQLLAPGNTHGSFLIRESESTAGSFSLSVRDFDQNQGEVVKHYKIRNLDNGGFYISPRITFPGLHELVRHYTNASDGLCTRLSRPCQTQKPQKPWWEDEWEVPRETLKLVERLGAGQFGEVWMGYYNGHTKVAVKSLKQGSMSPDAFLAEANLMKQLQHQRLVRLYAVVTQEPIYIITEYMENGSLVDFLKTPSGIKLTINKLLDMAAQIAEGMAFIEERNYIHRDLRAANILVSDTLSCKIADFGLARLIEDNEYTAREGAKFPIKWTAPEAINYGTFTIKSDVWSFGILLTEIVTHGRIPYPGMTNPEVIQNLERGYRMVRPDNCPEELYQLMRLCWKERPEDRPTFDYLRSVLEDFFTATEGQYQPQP
Chain of PDE4D2 (Q08499 303-809): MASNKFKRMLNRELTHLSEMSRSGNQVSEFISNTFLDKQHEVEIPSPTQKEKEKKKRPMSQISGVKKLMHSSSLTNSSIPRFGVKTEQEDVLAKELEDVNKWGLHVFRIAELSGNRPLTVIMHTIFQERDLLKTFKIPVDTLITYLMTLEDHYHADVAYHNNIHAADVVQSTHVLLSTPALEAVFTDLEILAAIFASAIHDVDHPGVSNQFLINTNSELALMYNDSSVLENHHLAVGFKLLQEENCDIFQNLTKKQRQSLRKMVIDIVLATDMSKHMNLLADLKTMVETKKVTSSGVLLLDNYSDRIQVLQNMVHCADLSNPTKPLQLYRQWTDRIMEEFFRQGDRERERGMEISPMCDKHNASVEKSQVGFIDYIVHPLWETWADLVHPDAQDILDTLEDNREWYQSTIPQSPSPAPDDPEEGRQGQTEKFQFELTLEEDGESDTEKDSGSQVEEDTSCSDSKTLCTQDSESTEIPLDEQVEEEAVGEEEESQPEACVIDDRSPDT
Chain of PDE3A (Q14432 whole entry, species assumed): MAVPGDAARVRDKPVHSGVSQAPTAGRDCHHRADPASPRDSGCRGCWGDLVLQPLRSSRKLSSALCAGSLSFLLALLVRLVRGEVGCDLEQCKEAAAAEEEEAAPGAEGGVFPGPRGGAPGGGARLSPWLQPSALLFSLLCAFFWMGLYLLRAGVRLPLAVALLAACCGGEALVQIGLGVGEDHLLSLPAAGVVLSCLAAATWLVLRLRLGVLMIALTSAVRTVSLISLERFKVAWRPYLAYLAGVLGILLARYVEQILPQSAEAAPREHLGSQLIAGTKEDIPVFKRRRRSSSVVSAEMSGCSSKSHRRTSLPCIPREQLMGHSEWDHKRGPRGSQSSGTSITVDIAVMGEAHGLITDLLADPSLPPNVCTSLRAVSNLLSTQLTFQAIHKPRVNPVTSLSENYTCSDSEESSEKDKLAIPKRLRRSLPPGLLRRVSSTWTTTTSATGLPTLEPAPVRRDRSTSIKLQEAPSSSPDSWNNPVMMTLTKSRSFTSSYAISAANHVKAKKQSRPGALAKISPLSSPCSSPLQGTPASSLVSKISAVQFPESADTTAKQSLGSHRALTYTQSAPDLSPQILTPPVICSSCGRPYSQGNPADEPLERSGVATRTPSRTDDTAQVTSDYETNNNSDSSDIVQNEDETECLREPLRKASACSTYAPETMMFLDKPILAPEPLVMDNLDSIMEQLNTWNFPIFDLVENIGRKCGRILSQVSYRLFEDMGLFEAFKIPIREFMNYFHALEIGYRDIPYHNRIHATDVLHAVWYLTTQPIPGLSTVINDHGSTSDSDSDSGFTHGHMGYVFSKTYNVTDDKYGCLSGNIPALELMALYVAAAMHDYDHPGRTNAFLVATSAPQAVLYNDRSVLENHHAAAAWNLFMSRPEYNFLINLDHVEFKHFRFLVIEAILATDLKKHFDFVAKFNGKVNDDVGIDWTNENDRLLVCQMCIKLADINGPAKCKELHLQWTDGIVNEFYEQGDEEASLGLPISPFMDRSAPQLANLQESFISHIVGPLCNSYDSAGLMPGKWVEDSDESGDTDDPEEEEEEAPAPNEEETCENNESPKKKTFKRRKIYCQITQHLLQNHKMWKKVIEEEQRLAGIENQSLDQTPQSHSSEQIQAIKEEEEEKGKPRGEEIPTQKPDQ

In the case of `c1ccc2c(c1)N=C(N1CCNCC1)c1ccccc1N2` [Cmpd-21, compound 21], the inhibition (PDE4D2) is reported as under 25%, the inhibition (AChE) is reported as under 25% and the “competitive inhibition of ligand binding” value [1] is reported as over 50%. The “competitive inhibition of ligand binding” value (H1 histamine receptor) was over 50%, the “competitive inhibition of ligand binding” value [2] was over 50% and the “competitive inhibition of ligand binding” value [3] was over 50%. The inhibition (Lck kinase) was under 25%, the inhibition (COX2) was 60% and the EC50 (hM3Dq) was 1.7 nM. The “competitive inhibition of ligand binding” value (M3 muscarinic receptor) was over 50%, the mean brain concentration [4, 6] was 722 nM and the “mean concentration in CSF” value [4, 6] was 52 nM. For the same compound, the “mean concentration in plasma” value [4, 6] was 5833 nM, the “CSF concentration as % of peak value” [4, 7] was 54% and the mean brain concentration [4, 7] was 1273 nM. The “plasma concentration as % of peak value” [4, 7] was 57%, the “time of peak plasma and CSF levels” value ([4]; mice, after 3.0 mg/kg Cmpd-21 i.p., earliest time point of measurement) was 15 min and the “conversion to CLZ or CNO” value ([4]; mice, data not shown) was “did not detect any conversion”. For the same compound, the “competitive inhibition of ligand binding” value [5] was over 50%, the “competitive inhibition of ligand binding” value (μ opioid receptor) was over 50% and the “competitive inhibition of ligand binding” value (5-HT3 serotonin receptor) was over 50%. For the same compound, the “competitive inhibition of ligand binding” value (δ opioid receptor) was over 50%, the EC50 (hM4Di) was 2.95 nM and the “behavioural changes in 5-CSRTT parameters” value (C57BL/6 J mice; Cmpd-21 0.3, 1 and 3 mg/kg i.p.) was “did not produce any significant behavioural changes in any 5-CSRTT parameters”. The inhibition (PDE3A) was under 25%, the “competitive inhibition of ligand binding” value (D2 dopamine receptor) was over 50% and the “competitive inhibition of ligand binding” value (κ opioid receptor) was over 50%. The “competitive inhibition of ligand binding” value (α1A adrenoreceptor) was over 50%, the “competitive inhibition of ligand binding” value (D1 dopamine receptor) was over 50% and the “competitive inhibition of ligand binding” value (M1 muscarinic receptor) was over 50%. The “competitive inhibition of ligand binding” value (M2 muscarinic receptor) was over 50% and the inhibition (COX1) was under 25%.

In the case of `CN1CCN(C2=Nc3cc(Cl)ccc3Nc3ccccc32)CC1` [CLZ, clozapine], the Kp (in vivo; C57BL/6J, CSF, 1 mg/kg) is reported as about 0.01, the concentration at 15 min (in vivo; CSF, 1 mg/kg) is reported as 1.9 nM and the concentration at 15 min (in vivo; [8]) is reported as about 427 nM. For the same compound, the concentration at 60 min (in vivo; [8]) was 406 nM, the Kp at 15 min (in vivo; brain, 1 mg/kg) was about 6 and the concentration at 15 min (in vivo; brain, 1 mg/kg) was 2060 nM. For the same compound, the concentration at 60 min (in vivo; brain, 1 mg/kg) was 1020 nM, the Tmax (in vivo; plasma, brain and CSF, 1 mg/kg) was 15 min and the concentration at 15 min (in vivo; plasma, 1 mg/kg) was 344 nM. For the same compound, the concentration at 60 min (in vivo; plasma, 1 mg/kg) was 123 nM, the “mean CLZ plasma concentration as % of mean CNO plasma concentration” value ([4]; mice, 15 min after i.p. 3.5 mg/kg CNO) was “approximately 3.3%” and the “free (CSF) concentration as % of the brain concentration” value ([4]; mice, after i.p. 1 mg/kg CLZ) was “approximately 0.1%”. The “concentration in CSF” value ([4]; mice, all sampling points (15, 30, 60 min) after i.p. 3.5 mg/kg CNO, detection limit) was 1 to 2.5 nM, the “decline within 60 min in plasma and brain tissue” value ([4]; mice, single injection of CLZ) was “approximately 2 fold” and the attentional accuracy (C57BL/6 J mice; CLZ 0.1 mg/kg i.p., p = 0.0439) was “mild decrease”. The “omissions (inattentiveness)” value (C57BL/6 J mice; CLZ 1 mg/kg i.p., p = 0.0108) was “mild increase” and the “behavioural changes in 5-CSRTT parameters” value (C57BL/6 J mice; CLZ 0.1, 0.3 and 1 mg/kg i.p., vs vehicle) was “did not produce any significant behavioural changes in most 5-CSRTT parameters”.

In the case of `Clc1ccc2c(c1)N=C(N1CCNCC1)c1ccccc1N2` [NorCLZ, norclozapine], the “detection of metabolite in plasma” value ([4]; mice, 15, 30, 60 min after i.p. 1 mg/kg CLZ) is reported as “detectable in all plasma samples”.
